The text below walks through data of patent USRE38425E1, “Semicarbazones having CNS activity and pharmaceutical preparations containing same” (University of Saskatchewan Technologies, Inc., priority 1995, dated 2004).

Each structure is given as a SMILES string.

Data set [1] concerns mice. As to the kind of experiment: MES screen after intraperitoneal injection in mice. Type of data set: in vivo. Particulars: Mus musculus, ip, read-out: MES screen ED50 (mg/kg), intraperitoneal injection in mice; time t (h) per compound as in the table.
In data set [2] the test system is mice. Conditions: intraperitoneal injection in mice; time t (h) per compound as in the table.
Experimental: An initial anticonvulsant evaluation of the compounds prepared according to Example 1 was undertaken by administering the compounds by the intraperitoneal route to mice. Protection and/or neurotoxicity was noted 0.5 and 4 hours after administering doses of 30, 100 and 300 mg/kg of each semicarbazone to the animals.
Doses of 30, 100 and 300 mg/kg were injected by the intraperitoneal route into mice and evaluated in the MES, scPTZ and neurotoxicity screens one half and four hours after administration.
Data set [3] relates to rats. Conditions: rat, in vivo, po.
Experimental: Initially doses of 50 mg/kg of the semicarbazones were administered.
Another data set has as its system kindled rat. As to the kind of experiment: kindled rat test (corneal kindled rat screen). Conditions: Rattus norvegicus; read-out: ED50 (dose required to reduce seizures from stage 5 to stage 3 or less). Type of data set: in vivo, rats. From the text: Particularly preferred compounds according to the present invention are 4-(4′-fluorophenoxy)benzaldehyde semicarbazone and 4-(thiophenoxy)benzaldehyde semicarbazone. […] Incidentally, the kindled rat screen is described by R. J. Racine in “Modification of Seizure Activity by Electrical Stimulation. II. Motor Seizure”, Electroencephalogr.Clin.Neurophysiol., 1972, 32, 281-294, and by G. Skeen et al. In “Development of Kindled Seizures Following Electrical Stimulation via the Cornea”, Soc.Neurosci., 1990, 16(1), 307; the disclosures of which are incorporated herein by reference.
The kindled rat test was undertaken by reported procedures (as indicated above). Compound 4b was administered orally and the animals challenged with electrical stimuli 2h later. The ED50 is the dose required to reduce seizures from stage 5 to stage 3 or less and these stages are described as follows namely stage 1 is mouth and facial clonus, stage 2 is stage 1 plus head nodding, stage 3 is stage 2 plus forelimb clonus, stage 4 is stage 3 plus rearing and stage 5 is stage 4 plus repeated rearing and falling.

Data set [4] concerns rats. Nature of the data set: MES screen after oral administration to rats. Particulars: Rattus norvegicus, po, read-out: MES screen ED50 (mg/kg), oral administration to rats; time t (h) per compound as in the table.
Experimental: The majority of the compounds were examined for oral activity in rats. Initially doses of 50 mg/kg of the semicarbazones were administered.
Evaluation of most of the semicarbazones and analogs in the MES and neurotoxicity tests after oral administration to rats was performed.

Regarding `CCCC(CCC)C(=O)O` [Valproic acid, reference compound], the ED50 turned out to be 287 mg/kg with mice [1], 117 mg/kg with kindled rat and 395 mg/kg in the data set with rats [4]. Moreover, the “acPTZ screen ED50” value in the data set with mice [2] was 209 mg/kg. Also, in the data set with rats [3], the “neurotoxicity screen TD50” value worked out at 859 mg/kg.
